Several values for one entry are separate records, joined by “and”; a condition that tells them apart may be missing. Equal entries are not always repeated. Where two headings read alike, the source gives them in different places.
Experiments:
MDA-MB-436 cells [1] = assay: Cell viability assay (MTT); assay type: cell-based; conditions: Homo sapiens
Description: 5 × 10^3 cells were seeded into each well in 96-well microplates and cultured for 24 h. […] After drug treatment, the cell viabilities were detected by MTT assay.

Recombinant Human PARP1 = biological target: T1, Recombinant Human PARP1 (Homo sapiens, UniProt P09874); assay: PARP1 enzymatic inhibition assay (Universal Chemiluminescent PARP Assay Kit); assay type: biochemical; conditions: mean ± SD, at least three independent experiments
T1 construct: purchased Trevigen
Description: The PARP1 enzymatic inhibition assay was performed by using Universal Chemiluminescent PARP Assay Kit (Trevigen, Gaithersburg, MD, USA) according to the manufacturer’s instruction and previous report. Briefly, serial dilutions of inhibitor were added to appropriate wells followed by addition of diluted PARP1 enzyme (0.5 Unit/well). After incubation for 10 min at room temperature, distributing 25 μL of 1X PARP Cocktail into each well and incubating the strip wells at room temperature for 60 min. The strip wells were washed with 1X PBS and 0.1% Triton X-100 for twice. Then 50 µL/well of diluted Strep-HRP was added to each well and incubate at room temperature for 60 min. After another wash with PBS, mixing equal volumes of PeroxyGlow™ A and B together and adding 100 µl per well. Finally, immediately taking the chemiluminescent readings. The IC50 values of PARP1 inhibitors were determined using Prism 6 software (GraphPad, San Diego, CA, USA).

Bax, Bcl-2, Caspase-3 = assay: Western blot analysis of apoptotic markers; assay type: cell-based; conditions: MDA-MB-436 cells
Description: (§1) Western blot analysis was carried out briefly as previous description. MDA-MB-436 cells were exposed to OL-1 for indicated time. Both floating cells and adherent were collected. The cell pellets were resuspended with RIPA lysis buffer and PMSF (1 mM) (Beyotime, Haimen, Jiangsu, China) and lysed at 4 °C for 1 h. After 12,000 rpm centrifugation for 10 min, the supernatant was collected to determine the protein content by the BCA Protein Assay Kit (CWBIO, Beijing, China). […] After pre-blocking in TBST with 5% non-fat milk or BSA for 1 h, the membranes were incubated with primary antibodies overnight at 4 °C, and subsequently incubated with HRP-conjugated secondary antibody at room temperature for 1–2 h. Positive signals were detected by using ECL as the HRP substrate after washing with TBST solution.

MDA-MB-436 cells [2] = assay: Apoptosis assay (Annexin V-FITC/PI double staining, flow cytometry); assay type: cell-based; conditions: MDA-MB-436, 0.25-1 μM, 24 h
Description: MDA-MB-436 cells (1 × 10^5 per well) were seeded into 6-well microplates in the presence or absence of OL-1 and cultured for 24 h, then incubated with 500 μL Hoechst 33258 staining solution (0.5 μg/mL) for 30 min at 37 °C. After staining, the apoptotic features were observed under fluorescence microscope. Apoptotic ratio was measured by Annexin-V-FLUOS Staining Kit (Roche, Germany) according to the manufacturer’s protocol followed by flow cytometry (FACS) analysis (Becton Dickinson, Franklin Lakes, NJ).

MDA-MB-436 cells [3] = assay: Cell migration assay (scratch wound); assay type: cell-based; conditions: 24 h
Description: MDA-MB-436 cells were cultured in 24-well microplates and scratch-wounded by sterilized pipettes. Then the cells were washed with PBS and cultured with normal medium or OL-1. After 24 h incubation, pictures were taken by phase-contrast microscope.

MDA-MB-436 xenograft = MDA-MB-436 xenograft tumor model; assay type: in vivo, BALB/c nude mice
Description: All experiments protocols used in this study were carried out in accordance with guidelines of the animal ethics committee (Sichuan University). Thirty-two 6–8 weeks-old female BALB/c nude mice (18–20 g) were subcutaneously injected with MDA-MB-436 cells (1 × 10^7 cells/mouse). Until the tumor volumes reached 100 mm^3 (calculated as V = L × W^2/2), the mice were randomly divided into four groups. […] Body weight and the tumor size were determined every day until the end of the study. All mice were sacrificed at the end of drug treatment. The organs of mice such as spleen, liver and kidney were harvested and weighed. Tumor tissues were detached and fixed in 4% paraformaldehyde for immunohistochemistry or lysed for western blotting.
Immunohistochemical analysis was carried out by the method of our previous study. Samples were dehydrated using gradient ethanol, and subsequently paraffin embedded. The paraffin embedded samples were sliced into 5 μm thickness sections. […] Nuclei were counterstained with hematoxylin. The numbers of positive cells were counted in at least 6 fields for each section and statistical analyzed.

PARP1 and PAR = assay: Western blot analysis of PARP1 and PAR in treated cells; assay type: cell-based; conditions: MDA-MB-436 cells
Description: as §1

[4] = MDA-MB-436 cells (BRAC1 mutant breast cancer), mean ± SD, at least three independent experiments, read-out: Anti-cell viability (IC50, μM) MDA-MB-436
[5] = recombinant human PARP1, read-out: Enzymatic inhibition (IC50, μM) PARP1
[6] = high dose 25 mg/kg/d i.p., 14 days, vs Iniparib 100 mg/kg/d and low dose 12.5 mg/kg/d, P < 0.05

T1 sequence (P09874 whole entry): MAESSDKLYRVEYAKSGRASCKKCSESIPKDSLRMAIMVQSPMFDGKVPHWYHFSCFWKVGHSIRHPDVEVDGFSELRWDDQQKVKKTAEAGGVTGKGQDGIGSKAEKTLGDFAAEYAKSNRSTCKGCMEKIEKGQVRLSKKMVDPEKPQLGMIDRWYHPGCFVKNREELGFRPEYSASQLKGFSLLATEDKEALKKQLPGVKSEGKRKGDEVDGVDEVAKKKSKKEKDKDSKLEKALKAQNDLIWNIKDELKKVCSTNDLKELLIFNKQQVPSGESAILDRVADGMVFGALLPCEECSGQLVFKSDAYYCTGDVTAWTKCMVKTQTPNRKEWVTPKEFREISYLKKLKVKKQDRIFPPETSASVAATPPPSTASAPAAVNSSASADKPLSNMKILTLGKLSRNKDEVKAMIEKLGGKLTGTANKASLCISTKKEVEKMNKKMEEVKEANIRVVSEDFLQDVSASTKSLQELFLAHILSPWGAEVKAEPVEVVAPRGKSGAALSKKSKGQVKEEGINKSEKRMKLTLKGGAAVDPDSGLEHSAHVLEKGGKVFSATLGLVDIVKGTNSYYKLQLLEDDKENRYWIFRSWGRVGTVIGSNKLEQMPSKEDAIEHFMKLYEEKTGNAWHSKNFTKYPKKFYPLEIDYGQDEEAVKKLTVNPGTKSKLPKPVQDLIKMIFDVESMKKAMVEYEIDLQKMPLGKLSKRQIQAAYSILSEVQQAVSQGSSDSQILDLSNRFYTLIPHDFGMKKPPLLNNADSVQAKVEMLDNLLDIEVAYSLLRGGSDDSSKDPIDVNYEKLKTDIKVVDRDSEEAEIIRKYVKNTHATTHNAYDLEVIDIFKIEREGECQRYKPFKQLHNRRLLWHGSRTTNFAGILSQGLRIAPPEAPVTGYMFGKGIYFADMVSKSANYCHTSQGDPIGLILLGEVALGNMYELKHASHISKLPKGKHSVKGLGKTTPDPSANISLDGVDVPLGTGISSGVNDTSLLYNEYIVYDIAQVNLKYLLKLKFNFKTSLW

| Structure (SMILES) | IC50 (MDA-MB-436 cells [1]; [4]) [µM] | IC50 (Recombinant Human PARP1; [5]) | further results |
| --- | --- | --- | --- |
| CN(C)CCC=C1c2ccccc2CCc2ccccc21 [11d (PA-10), 3-(10,11-dihydro-5H-dibenzo[a,d][7]annulen-5-ylidene)-N,N-dimethylpropan-1-amine] | 5.44 ± 1.01 | 1.65 ± 0.25 µM | – |
| CN(C)CC/C=C1/c2ccccc2COc2ccc(CC(=O)NN)cc21 [33e (OL-1)] | 0.736 ± 0.223 | – | Bax expression (Bax, Bcl-2, Caspase-3): upregulated; Bcl-2 expression (Bax, Bcl-2, Caspase-3): downregulated; cleavage of caspase-3 (Bax, Bcl-2, Caspase-3): increased; IC50 (MDA-MB-436 cells [1]; BRCA1 mutant MDA-MB-436 cells, MTT, Fig. 11A, read-out: anti-proliferative effects IC50): 5.14 µM; apoptotic cell ratio (MDA-MB-436 cells [2]): obviously increased in a concentration-dependent manner; cell migration (MDA-MB-436 cells [3]): could inhibit cell migration; IC50 (Recombinant Human PARP1; Enzymatic inhibition (IC50, μM) PARP1, recombinant human PARP1): 0.079 ± 0.013 µM; loss of body weight (MDA-MB-436 xenograft; 25 mg/kg/d i.p., during the 14 days of treatment, P < 0.01): 10.05%; liver, spleen and kidney weights (MDA-MB-436 xenograft; OL-1 treated groups (12.5 and 25 mg/kg/d i.p.)): not changed; tumor volumes (MDA-MB-436 xenograft; [6]): lower than the positive control; tumor weights (MDA-MB-436 xenograft; [6]): lower than the positive control; positive ratio of Ki-67 in tumor tissues (MDA-MB-436 xenograft; immunohistochemistry, compared to the control group): significantly reduced; decrease of body weights (MDA-MB-436 xenograft; low dose 12.5 mg/kg/d i.p., 14 days): not obvious; expression of PAR (western blot) (PARP1 and PAR): decreased; activity of PARP (western blot) (PARP1 and PAR; no cleavage of PARP): significantly inhibited |
| CNCC=C1c2ccccc2CCc2ccccc21 [Compound 11a] | – | > 20 µM | – |
| CN(C)CC=C1c2ccccc2CCc2ccccc21 [Compound 11b] | > 20 | 16.2 ± 1.24 µM | – |
| CNCCC=C1c2ccccc2CCc2ccccc21 [Compound 11c] | > 20 | 4.21 µM and 14.2 µM | – |
| CNCCCC=C1c2ccccc2CCc2ccccc21 [Compound 11e] | – | > 20 µM | – |
| CN(C)CCCC=C1c2ccccc2CCc2ccccc21 [Compound 11f] | – | > 20 µM | – |
| C(=C1c2ccccc2CCc2ccccc21)c1ccccc1 [Compound 15a] | – | > 20 µM | – |
| Fc1ccc(C=C2c3ccccc3CCc3ccccc32)cc1 [Compound 15b] | – | > 20 µM | – |
| Clc1ccc(C=C2c3ccccc3CCc3ccccc32)cc1 [Compound 15c] | – | > 20 µM | – |
| Brc1ccc(C=C2c3ccccc3CCc3ccccc32)cc1 [Compound 15d] | – | > 20 µM | – |
| Cc1ccc(C=C2c3ccccc3CCc3ccccc32)cc1 [Compound 15e] | – | > 20 µM | – |
| CN(C)CC=C1c2ccccc2COc2ccccc21 [Compound 19a] | > 20 | 13.2 ± 2.33 µM | – |
| CN(C)CCC=C1c2ccccc2COc2ccccc21 [Compound 19b] | – | 0.75 ± 0.27 µM | – |
| CN(C)CCCC=C1c2ccccc2COc2ccccc21 [Compound 19c] | – | > 20 µM | – |
| CN(C)CC=C1c2ccccc2CSc2ccccc21 [Compound 23a] | > 20 | 19.2 ± 3.05 µM | – |
| CN(C)CCC=C1c2ccccc2CSc2ccccc21 [Compound 23b] | 17.9 ± 2.11 | 1.04 ± 0.17 µM | – |

| Structure (SMILES) | IC50 (MDA-MB-436 cells [1]; [4]) [µM] | IC50 (Recombinant Human PARP1; [5]) | further results |
| --- | --- | --- | --- |
| CN(C)CCCC=C1c2ccccc2CSc2ccccc21 [Compound 23c] | – | > 20 µM | – |
| CN(C)CC=C1c2ccccc2Cc2ccccc21 [Compound 26a] | – | > 20 µM | – |
| CN(C)CCC=C1c2ccccc2Cc2ccccc21 [Compound 26b] | > 20 | 17.9 ± 2.46 µM | – |
| CN(C)CCCC=C1c2ccccc2Cc2ccccc21 [Compound 26c] | – | > 20 µM | – |
| CN(C)CC=C1c2ccccc2Oc2ccccc21 [Compound 28a] | – | > 20 µM | – |
| CN(C)CCC=C1c2ccccc2Oc2ccccc21 [Compound 28b] | – | > 20 µM | – |
| CN(C)CCCC=C1c2ccccc2Oc2ccccc21 [Compound 28c] | – | > 20 µM | – |
| CN(C)CC/C=C1/c2ccccc2COc2ccc(CC(=O)O)cc21 [Compound 31] | > 20 | 11.2 ± 1.16 µM | – |
| COC(=O)Cc1ccc2c(c1)C(=CCCN(C)C)c1ccccc1CO2 [Compound 33a] | > 20 | 9.11 µM and 19.1 µM | – |
| CCOC(=O)Cc1ccc2c(c1)C(=CCCN(C)C)c1ccccc1CO2 [Compound 33b] | – | > 20 µM | – |
| CC(C)NC(=O)Cc1ccc2c(c1)C(=CCCN(C)C)c1ccccc1CO2 [Compound 33j] | 8.23 ± 1.56 | 7.35 ± 1.32 µM | – |
| CN(C)CCC=C1c2ccccc2COc2ccc(CC(=O)NCCO)cc21 [Compound 33k] | > 20 | 19.1 ± 2.16 µM | – |
| CN(C)CCC=C1c2ccccc2COc2ccc(CC(=O)NC3CC3)cc21 [Compound 33n] | – | > 20 µM | – |
| COCCCNC(=O)Cc1ccc2c(c1)C(=CCCN(C)C)c1ccccc1CO2 [Compound 33o] | – | > 20 µM | – |
| NC(=O)c1ccc(I)c([N+](=O)[O-])c1 [Iniparib, reference compound] | 14.3 ± 1.56 | – | liver weights (MDA-MB-436 xenograft; 100 mg/kg/d, 14 days, P < 0.01): significantly decreased; spleen weights (MDA-MB-436 xenograft; 100 mg/kg/d, 14 days, P < 0.05): affected |
| O=C(c1cc(Cc2n[nH]c(=O)c3ccccc23)ccc1F)N1CCN(C(=O)C2CC2)CC1 [Olaparib, reference compound] | – | – | IC50 (MDA-MB-436 cells [1]; MDA-MB-436, read-out: Anti-cell viability (IC50, μM) MDA-MB-436): 1.12 ± 0.77 µM |
